Experimental data: PubChem BioAssay (NCI)
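Where inhibition never reached the appropriate level, the endpoint shown equals the highest concentration tested. Otherwise, values were interpolated linearly from a five-concentration, 48-hour dose response in 96-well plates. The concentration for 50% growth inhibition is given as GI50. At the TGI there is no net growth.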

Tests used:
Experiment in all cases: DTP human tumour cell line panel, 48 h
[1] = tested on: DMS 273 small cell lung
[2] = tested on: RXF 393 renal
[3] = tested on: LOX IMVI melanoma
[4] = tested on: HT29 colon
[5] = tested on: A549 NSCLC
[6] = tested on: TK-10 renal
[7] = tested on: M19-MEL melanoma
[8] = tested on: SF-539 CNS
[9] = tested on: DMS 114 small cell lung
[10] = tested on: OVCAR-8 ovarian
[11] = tested on: SNB-78 CNS
[12] = tested on: T-47D breast

Compound	TGI [1] [µM]	TGI [2] [µM]	TGI [3] [µM]	TGI [4] [µM]	TGI [5] [µM]	TGI [6] [µM]	TGI [7] [µM]	TGI [8] [µM]	TGI [9] [µM]	TGI [10] [µM]	TGI [11] [µM]	TGI [12] [µM]	GI50 [2] [µM]	GI50 [3] [µM]	GI50 [4] [µM]	GI50 [5] [µM]	GI50 [6] [µM]	GI50 [12] [µM]	GI50 [10] [µM]	GI50 [8] [µM]
O=c1cc(-c2c[nH]c3ccccc23)[nH]c2cc3c(cc12)OCO3	> 100	> 100	> 100	> 100	> 100	> 100	> 100	> 100	> 100	–	–	–	–	–	–	–	–	–	–	–
O=C1NC(=O)C(=Nc2cccc3c(=O)[nH][nH]c(=O)c23)C(c2nc3ccccc3s2)C1=O (configuration not stated)	> 100	> 100	–	> 100	> 100	> 100	> 100	–	> 100	> 100	> 100	–	–	–	–	–	–	–	–	–
Cc1ccc(NC(=O)C2C(=O)N(c3ccc(C)c(C)c3)C(=O)/C2=N\NC(N)=O)cc1C (configuration not stated)	–	> 100	> 100	> 100	> 100	> 100	> 100	> 100	> 100	> 100	> 100	–	–	–	–	–	–	–	–	–
CN=C(NC(=S)N(C)C)N(C)C	> 100	> 100	–	> 100	> 100	> 100	> 100	> 100	> 100	> 100	> 100	–	–	–	–	–	–	–	–	–
C#CC[N+](C)(CC#C)CC#C	> 100	> 100	> 100	> 100	> 100	> 100	> 100	–	> 100	> 100	> 100	–	–	–	–	–	–	–	–	–
O=C(CSc1ncn[nH]1)C[P+](c1ccccc1)(c1ccccc1)c1ccccc1	> 100	> 100	> 100	–	> 100	> 100	> 100	> 100	> 100	> 100	> 100	–	–	–	–	–	–	–	–	–
O=C1C2=C(c3ccccc31)C(c1ccccc1)N1C(=O)CSC1=N2 (configuration not stated)	> 100	60.5	> 100	96.9	> 100	> 100	> 100	97.1	> 100	> 100	–	77.6	–	–	–	–	–	–	–	–
CCOc1ccc2c(c1)[n+]([O-])c(-c1ccc(Br)cc1)c(N)[n+]2[O-]	> 100	–	> 100	> 100	> 100	> 100	> 100	> 100	> 100	> 100	> 100	–	–	–	–	–	–	–	–	–
CCN(CC)c1ccc(N=Nc2ccc([N+](=O)[O-])cc2OC(=O)/C=C/c2ccccc2)c(OC(=O)/C=C/c2ccccc2)c1	> 100	> 100	> 100	> 100	> 100	> 100	> 100	> 27.9	> 25.2	> 100	> 100	–	–	–	–	–	–	–	–	–
C[N+](C)(C)CC1CCC/C1=N/O (configuration not stated)	> 100	> 100	38.4	> 100	> 100	> 100	> 100	> 100	39	4.34	> 100	–	–	–	–	–	–	–	–	–
Cc1cccc(C(C)C)c1N1C(=O)C(=O)C(c2nc3ccccc3o2)C(=O)C1=O	> 100	> 100	> 100	> 100	> 100	> 100	> 100	> 100	75.8	> 100	> 100	–	–	–	–	–	–	–	–	–
O=S(=O)(O)c1ccc(N=Nc2nc(C(F)(F)F)c(C(F)(F)F)[nH]2)cc1	> 100	32.9	29.2	> 100	> 100	> 100	> 100	65.9	30.5	> 100	> 100	–	–	–	–	–	–	–	–	–
NC(=O)c1c([N+](=O)[O-])cc(C(F)(F)F)cc1[N+](=O)[O-]	> 100	> 100	> 100	> 100	> 100	> 100	–	> 100	73.3	> 100	> 100	–	–	–	–	–	–	–	–	–
Cc1cc(-c2ccccc2)nc(Nc2nc3ccccc3o2)n1	–	–	> 100	> 100	> 100	> 100	> 100	> 100	> 100	> 100	> 100	–	–	–	–	–	–	–	–	–
CN(C)c1ccc(/C=C/c2ccc(/C=C/c3ccc(N(C)C)cc3)cc2)cc1	> 100	> 100	> 100	> 100	> 100	> 100	> 100	> 100	–	> 100	> 100	–	–	–	–	–	–	–	–	–
O=C(CC1(O)C(=O)Nc2ccc(Br)cc21)c1ccc(Cl)cc1Cl (configuration not stated)	–	> 100	–	> 100	> 100	> 100	29.1	> 100	46.8	> 100	> 100	–	–	–	–	–	–	–	–	–
N#CC1CCCCOCCOCCOCCOCCOCCCCCC1=O (configuration not stated)	> 100	> 100	> 100	> 100	> 100	> 100	> 100	–	> 100	> 100	> 100	–	–	–	–	–	–	–	–	–
CS(=O)(=O)NNS(=O)(=O)c1ccccc1	> 100	> 100	> 100	> 100	> 100	> 100	> 100	> 100	> 100	> 100	–	–	–	–	–	–	–	–	–	–
Cc1ccc(C(NC(=O)c2ccccc2)c2ccc3cccnc3c2O)cc1 (configuration not stated)	–	1.58	–	19.4	12.7	24.1	–	1.91	–	25.1	–	27.7	0.252	0.15	0.536	0.379	0.413	0.478	0.306	0.318

Compound	TGI [1] [µM]	TGI [2] [µM]	TGI [3] [µM]	TGI [4] [µM]	TGI [5] [µM]	TGI [6] [µM]	TGI [7] [µM]	TGI [8] [µM]	TGI [9] [µM]	TGI [10] [µM]	TGI [11] [µM]	TGI [12] [µM]	GI50 [2] [µM]	GI50 [3] [µM]	GI50 [4] [µM]	GI50 [5] [µM]	GI50 [6] [µM]	GI50 [12] [µM]	GI50 [10] [µM]	GI50 [8] [µM]
CC(=O)NC1C(OCc2ccccc2)OC(CO)C(O)C1OC(C)C(=O)N[C@@H](C)C(=O)N[C@H](CCC(=O)OCCNc1c2ccccc2nc2cccc([N+](=O)[O-])c12)C(N)=O (some centres not stated)	0.00433	0.00304	–	0.00443	0.0173	0.0631	–	0.0161	0.00839	0.028	0.0809	–	–	–	–	–	–	–	–	–
O=[N+]([O-])c1ccc(Cl)c(C2CC(c3cccc4ccccc34)=Nc3ccccc3S2)c1 (configuration not stated)	> 100	21.7	59.2	> 59.7	> 100	> 100	> 66.1	49.3	84.5	30.8	> 66.7	–	–	–	–	–	–	–	–	–
N#Cc1c(Br)n(C2OC(CO)C(O)C2O)c2ncnc(N)c12 (configuration not stated)	–	6.8	16.4	> 36.2	> 27	42	–	19.3	–	> 100	–	21	0.847	1.13	0.885	1.13	4.02	0.498	1.59	3.91
CC1=CC(=O)C(C(C)C)=CC1=Nc1cc(Br)c(O)c(Br)c1	–	15.3	20.4	16	> 100	31.4	–	5.96	–	57.8	–	21.2	3.9	5.04	4.05	4.98	11.7	5.74	4.65	2.29
COC(=O)/C(=N/Nc1cccc(Cl)c1)C(C(=O)C(=O)Nc1cccc(Cl)c1C)c1nc2ccccc2nc1C (configuration not stated)	–	> 100	–	> 100	> 100	> 100	> 100	> 100	> 100	> 100	–	–	–	–	–	–	–	–	–	–
O=[N+]([O-])c1ccc(-c2noc(-c3ccc(Cl)cc3)c2C2=NCCN2)cc1	–	> 100	> 100	> 100	> 100	–	> 100	> 100	–	> 100	> 100	–	–	–	–	–	–	–	–	–
CC(C)(C)c1ccc(OC(=O)Nc2ccc(O)c(C(=O)O)c2)cc1	–	> 100	> 100	> 100	> 100	> 100	–	> 100	–	> 100	–	> 100	–	–	–	–	–	–	–	–
S=c1nc(COc2ccc(Cl)cc2Cl)[nH][nH]1	> 100	> 100	> 100	> 100	> 100	> 100	> 100	> 100	> 100	> 100	> 100	–	–	–	–	–	–	–	–	–
Cn1nc(-c2ccc(Cl)cc2)nc2c(=O)n(C)c(=O)nc1-2	–	1.57	1.61	11.3	1.73	24.8	–	2.29	–	3.51	–	3.43	0.781	0.601	1.11	0.768	6.09	1.12	0.976	1.08
CN(C)C(=Nc1nc(=[N+](C)C)ss1)N(C)C	> 100	> 100	–	> 100	> 100	> 100	> 100	> 100	> 100	> 100	–	–	–	–	–	–	–	–	–	–
O=[N+]([O-])c1ccc(Oc2nc(Nc3ccc(O[C@H]4CO[C@H]5[C@@H]4OC[C@@H]5O)c(Cl)c3)ncc2F)c(Cl)c1	–	2.91	2.28	11.7	6.15	4.07	–	3.86	–	> 100	–	8.06	0.787	0.667	2.43	1.86	1.08	1.13	1.21	1.55
CCN1C(=O)CCCc2c1ccc(Nc1ncc(Cl)c(NC3[C@@H](C(N)=O)[C@@H]4C=C[C@H]3C4)n1)c2OC (some centres not stated)	–	3.38	2.48	9.06	5.88	4.38	–	8.94	–	32.2	–	14.3	1.22	0.774	0.791	0.741	0.897	1.91	1.41	1.23
O=C(O)c1cn(C2CC2)c2cc(N3CCN(C(=O)Nc4nc(-c5ccccc5)cs4)CC3)c(F)cc2c1=O	–	26.3	1.03	4.67	> 100	35.1	–	> 100	–	49.2	–	> 100	1.53	0.281	0.636	2.15	3.93	1.74	1.45	0.634
Oc1ccc(-c2nc3ccc4[nH]ncc4c3c3c2CCCC3)c(F)c1	–	5.63	12.4	11.2	6.11	9.53	–	10.2	–	9.39	–	6.61	1.47	2.9	2.7	1.17	2	1.57	1.92	2.41
COC(=O)CCC1CCc2c(OC)ccc(OC)c2C1=O (configuration not stated)	> 100	> 100	> 100	> 100	> 100	> 100	–	> 100	> 100	> 100	> 100	–	–	–	–	–	–	–	–	–
O=C(NCCO)c1ccc([N+](=O)[O-])cc1	> 100	> 100	> 100	> 100	> 100	> 100	> 100	> 100	> 100	> 100	> 100	–	–	–	–	–	–	–	–	–
CCCCC(C)C(OC(=O)CC(CC(=O)O)C(=O)O)C(CC(C)CC(O)CCCCC(O)CC(O)C(C)N)OC(=O)CC(CC(=O)O)C(=O)O (configuration not stated)	–	> 100	> 100	> 100	> 100	> 100	> 100	> 100	–	> 100	–	–	–	–	–	–	–	–	–	–
COc1cccc2c1-c1c(c3ccc([N+](=O)[O-])cc3c(=O)n1CCCN)C2=O	–	> 78.8	2.64	3.08	34.4	13.2	–	3.19	–	5.66	–	3.63	24.1	1.2	1.24	11	2.81	1.52	1.5	1.52
CN(C)c1nnnn1-c1c(N)n(C)c(=O)n(C)c1=O	> 100	–	> 100	> 100	> 100	> 100	> 100	> 100	> 100	> 100	> 100	–	–	–	–	–	–	–	–	–
